Measured values reported in US8802597B2, “Herbicidal pyrimidines” (E I du Pont de Nemours and Company, priority 2003, dated 2014).

Tests used:
Test in all cases: Test C pre/postemergence
Type in all cases: in vivo
[1] = test system: cocklebur (Xanthium strumarium); details: for Plant response rating (scale of 0 to 100), Cocklebur / Cocklebur plant response rating: Postemergence; for Cocklebur plant response rating: scale 0 to 100 (0 no effect, 100 complete control); for Plant response rating, Cocklebur: Preemergence
Summary of the method: (§1)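 Test compounds, formulated in a non-phytotoxic solvent mix with surfactant, were applied to freshly planted seeds and, at the same time, to emerged plants at 1- to 4-leaf stage (2 to 18 cm). After 12 to 14 days in the greenhouse, response was scored visually versus controls, 0 = no effect, 100 = complete control.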

[2] = test system: lambsquarters (Chenopodium album); details: for Plant response rating (scale of 0 to 100), Lambsquarters / Lambsquarters plant response rating: Postemergence; for Lambsquarters plant response rating: scale 0 to 100 (0 no effect, 100 complete control); for Plant response rating, Lambsquarters: Preemergence
Summary of the method: as §1

[3] = test system: goosegrass (Eleusine indica); details: for Plant response rating (scale of 0 to 100), Goosegrass / Goosegrass plant response rating: Postemergence; for Goosegrass plant response rating: scale 0 to 100 (0 no effect, 100 complete control); for Plant response rating, Goosegrass: Preemergence
Summary of the method: as §1

[4] = test system: crabgrass (Digitaria sanguinalis); details: for Plant response rating (scale of 0 to 100), Crabgrass / Crabgrass plant response rating: Postemergence; for Crabgrass plant response rating: scale 0 to 100 (0 no effect, 100 complete control); for Plant response rating, Crabgrass: Preemergence
Summary of the method: as §1

[5] = test system: velvetleaf (Abutilon theophrasti); details: for Plant response rating (scale of 0 to 100), Velvetleaf / Velvetleaf plant response rating: Postemergence; for Velvetleaf plant response rating: scale 0 to 100 (0 no effect, 100 complete control); for Plant response rating, Velvetleaf: Preemergence
Summary of the method: as §1

corn (Zea mays) = details: for Plant response rating (scale of 0 to 100), Corn / Corn plant response rating: Postemergence; for Corn plant response rating: scale 0 to 100 (0 no effect, 100 complete control); for Plant response rating, Corn: Preemergence
Summary of the method: as §1

[6] = test system: bermudagrass (Cynodon dactylon)
Summary of the method: as §1

[7] = 16 g ai/ha, scale 0 to 100, 0 no effect, 100 complete control
[8] = 31 g ai/ha, scale 0 to 100, 0 no effect, 100 complete control
[9] = 62 g ai/ha, scale 0 to 100, 0 no effect, 100 complete control

COCc1nc(C2CC2)nc(N)c1Br [Compound 11]
Plant response rating (scale of 0 to 100), Cocklebur ([1]; 16 g ai/ha): 0
Plant response rating (scale of 0 to 100), Cocklebur ([1]; 31 g ai/ha): 0
Cocklebur plant response rating ([1]; 62 g ai/ha): 25
Cocklebur plant response rating ([1]; 125 g ai/ha): 40
Plant response rating, Cocklebur [1, 7]: 0
Plant response rating, Cocklebur [1, 8]: 0
Plant response rating, Cocklebur [1, 9]: 0
Plant response rating, Cocklebur ([1]; 125 g ai/ha, scale 0 to 100): 0
Plant response rating (scale of 0 to 100), Lambsquarters ([2]; 16 g ai/ha): 50
Plant response rating (scale of 0 to 100), Lambsquarters ([2]; 31 g ai/ha): 60
Lambsquarters plant response rating ([2]; 62 g ai/ha): 70
Lambsquarters plant response rating ([2]; 125 g ai/ha): 80
Plant response rating, Lambsquarters [2, 7]: 0
Plant response rating, Lambsquarters [2, 8]: 0
Plant response rating, Lambsquarters [2, 9]: 40
Plant response rating, Lambsquarters ([2]; 125 g ai/ha, scale 0 to 100): 85
Plant response rating (scale of 0 to 100), Goosegrass ([3]; 16 g ai/ha): 0
Plant response rating (scale of 0 to 100), Goosegrass ([3]; 31 g ai/ha): 0
Goosegrass plant response rating ([3]; 62 g ai/ha): 0
Goosegrass plant response rating ([3]; 125 g ai/ha): 0
Plant response rating, Goosegrass [3, 7]: 0
Plant response rating, Goosegrass [3, 8]: 0
Plant response rating, Goosegrass [3, 9]: 0
Plant response rating, Goosegrass ([3]; 125 g ai/ha, scale 0 to 100): 0
Plant response rating (scale of 0 to 100), Crabgrass ([4]; 16 g ai/ha): 0
Plant response rating (scale of 0 to 100), Crabgrass ([4]; 31 g ai/ha): 0
Crabgrass plant response rating ([4]; 62 g ai/ha): 0
Crabgrass plant response rating ([4]; 125 g ai/ha): 20
Plant response rating, Crabgrass [4, 7]: 0
Plant response rating, Crabgrass [4, 8]: 0
Plant response rating, Crabgrass [4, 9]: 0
Plant response rating, Crabgrass ([4]; 125 g ai/ha, scale 0 to 100): 60
Plant response rating (scale of 0 to 100), Velvetleaf ([5]; 16 g ai/ha): 20
Plant response rating (scale of 0 to 100), Velvetleaf ([5]; 31 g ai/ha): 50
Velvetleaf plant response rating ([5]; 62 g ai/ha): 60
Velvetleaf plant response rating ([5]; 125 g ai/ha): 75
Plant response rating, Velvetleaf [5, 7]: 0
Plant response rating, Velvetleaf [5, 8]: 0
Plant response rating, Velvetleaf [5, 9]: 0
Plant response rating, Velvetleaf ([5]; 125 g ai/ha, scale 0 to 100): 0
Plant response rating (scale of 0 to 100), Corn (corn (Zea mays); 16 g ai/ha): 0
Plant response rating (scale of 0 to 100), Corn (corn (Zea mays); 31 g ai/ha): 0
Corn plant response rating (corn (Zea mays); 62 g ai/ha): 0
Corn plant response rating (corn (Zea mays); 125 g ai/ha): 0
Plant response rating, Corn (corn (Zea mays); [7]): 0
Plant response rating, Corn (corn (Zea mays); [8]): 0
Plant response rating, Corn (corn (Zea mays); [9]): 0
Plant response rating, Corn (corn (Zea mays); 125 g ai/ha, scale 0 to 100): 0
Plant response rating (scale of 0 to 100), Bermudagrass ([6]; Postemergence, 16 g ai/ha): 0
Plant response rating (scale of 0 to 100), Bermudagrass ([6]; Postemergence, 31 g ai/ha): 0
Bermudagrass plant response rating ([6]; Postemergence, 62 g ai/ha, scale 0 to 100 (0 no effect, 100 complete control)): 0
Plant response rating, Bermudagrass ([6]; Postemergence, 125 g ai/ha, scale 0 to 100): 0
Plant response rating, Bermudagrass ([6]; Preemergence, 16 g ai/ha, scale 0 to 100, 0 no effect, 100 complete control): 0
Plant response rating, Bermudagrass ([6]; Preemergence, 31 g ai/ha, scale 0 to 100, 0 no effect, 100 complete control): 0
Plant response rating, Bermudagrass ([6]; Preemergence, 62 g ai/ha, scale 0 to 100, 0 no effect, 100 complete control): 0
Plant response rating, Bermudagrass ([6]; Preemergence, 125 g ai/ha, scale 0 to 100): 0
